Reference: patent US11090305B2, “Methods and compositions to reduce oxidative stress” (University of Massachusetts, priority 2009, dated 2021)

What was measured:
[1] = test system: HSCs; assay: Competitive HSC transplantation, bone marrow repopulation; type: in vivo, mouse; conditions: ApoE^−/− donor mice treated before HSC harvest (NAC 4 weeks; SB203580, PD98059 2 weeks)
Method: HSC were purified from freshly harvested bone marrow mononuclear cells as c-Kit^+Sca-1^+CD90.1^lowLin^− by FACS sorting. Recipient mice were C57BL/6 (WT) on standard chow. Recipients underwent lethal irradiation (1100 Rads delivered in 2 doses 3 hr apart). Immediately after the 2nd irradiation, recipients were anesthetized (2% isoflurane) and 10^6 HSC/0.1 ml sterile PBS were transplanted via retro-orbital injection. Mice were followed for 12 weeks before study or administration of AOM.
The functional consequence of this loss of quiescence by competitive transplantation was investigated next, insofar as the presence of quiescent HSC are critical for successful bone marrow reconstitution. HSCs from CD45.2 ApoE^−/− or HCD mice were mixed 1:1 with CD45.1 WT HSCs and then transplanted into lethally irradiated CD45.1 WT recipients.
Activation of p38 MAPK reduces HSC quiescence in Atm^−/− mice. To evaluate this phenomena in hypercholesterolemic mice, ApoE^−/− and WT mice were treated with the selective p38 MAPK inhibitor SB203580 or the MEK 1 inhibitor PD98059 for 2 weeks prior to harvest of HSCs for transplant. CD45.2 ApoE^−/− or WT HSCs with mixed 1:1 with CD45.1 WT HSCs and transplanted into lethally irradiated CD45.1 recipient mice.

[2] = test system: db/db MSC; assay: Differentiation of db/db MSC towards endothelial cells (CD31 staining); type: cell-based, mouse; conditions: endogenic medium
Method: Endothelial cells were identified by CD31 staining. m±sd, n=4, *P<0.05.
Adipocytes were identified by Oil Red O staining. m±sd, n=4, *p<0.05 vs control. […] Endothelial cells were identified by CD31 staining. m±sd, n=4, *p<0.05 vs control, #p<0.05 vs 5 nM.

[3] = test system: db/db MSC; assay: Basal protein expression in db/db MSC (western blot); type: cell-based, mouse
[4] = test system: hematopoietic stem cells (HSCs); assay: DCF-DA staining of HSCs from hypercholesterolemic mice (Example 6); type: in vivo, mouse; conditions: ApoE^−/− and HCD mice, 100 mg/Kg i.p. every other day for 4 weeks
Text: All mice were purchased from Jackson Laboratories (Bar Harbor, Me.) and were maintained in the mouse barrier facility. Care of mice was in accordance with NIH guidelines and the Institutional Animal Care and Use Committee of the University of Massachusetts Medical School approved all protocols. Mice were kept on a 12 hr day/night schedule and were allowed free access to chow and water. ApoE^−/− and WT mice were fed standard mouse chow (5.4 g fat/100 g diet, 0% cholesterol). HCD mice were fed a diet with 10 g fat/100 g diet, […] (Research Diets, New Brunswick, N.J.). […] Azoxymethane (AOM) was given by intraperitoneal injection (10 mg/Kg weekly for 3 weeks); 1% dextran sodium sulfate was added to the drinking water for the Pt week after AOM treatment. It is known that hypercholesterolemia induces oxidant stress in many cell types. […] FIGS. 49A-49C show hypercholesterolemia increases oxidant levels in hematopoietic stem cells. […] (B) Representative photomicrograph showing oxLDL-staining in HSC and BM-MNC from WT and ApoE^−/− mice. (C) Regression of mean polyp number/mouse on the % of HSC staining for DCF-DA. […] Statistical analysis was carried out using the means for each group. […] One of the principal means by which hypercholesterolemia induces oxidant stress is via the generation of oxidized low density lipoprotein (oxLDL).

[5] = test system: Notch1; assay: Notch1 expression in HSCs, early T progenitor cells and thymocytes (Example 6); type: in vivo, mouse; conditions: hypercholesterolemic mice, 4 weeks
Method: Cells were stained with monoclonal antibodies conjugated to various fluoroprobes. These antibodies included: Notch1, cKit (2B8), Sca-1 (E13-161.7), CD4 (L3T4), CD8 (53-6.72), CD90.1, CD25, CD44, TCRβ, NK1.1, γδTCR, CD45.1, CD45.2. The lineage cocktail consisted of CD4, CD8, B220 (RA3-6B2), TER-119, Mac-1 (MI/70), and Gr-1 (RB6-8C5). All antibodies were purchased from BD Bioscience (San Diego, Calif.). FACS analysis was carried out on a FACS Diva.
The Notch signaling pathways are expressed extensively in the hematopoietic system. Notch signaling dominates the regulation of proliferation, self-renewal, and lineage commitment of HSCs in the bone marrow as well as their downstream differentiation and maturation in the thymus (23-28). Moreover, Notch1 appears to participate in the differentiation of the unique T cell subsets, NKT cells and γδT cells (29-32). In this context, the mechanistic basis between HSC oxidant stress and aberrant lineage specification toward NKT and γδT cells in hypercholesterolemic mice was evaluated by determining Notch expression in HSC, bone marrow T cell progenitors, and immature thymocytes. […] Notch1 expression was evaluated in HSCs, early T progenitor cells, and thymocytes differs between ApoE^−/− and WT mice. […] Notch1 expression also was evaluated in HSCs, early T progenitor cells, and thymocytes differs between HCD and WT mice. […]

Question: Which “percentage of CD45.2^+ bone marrow mononuclear cells 12 weeks after competitive transplantation” value [1] does the source give for `CC(=O)N[C@@H](CS)C(=O)O` [NAC, N-acetylcysteine] here?
Answer: significantly increased the percentage of CD45.2^+ mononuclear cells in recipient bone marrow

Question: And the “differentiation towards endothelial cells” value [2]?
Answer: increased differentiation towards endothelial cells

Question: And the eNOS expression [3]?
Answer: no change in eNOS expression

Question: And the phospho-eNOS expression [3]?
Answer: increased phospho-eNOS expression

Question: And the PPARγ expression ([3]; basal)?
Answer: reduced basal PPARγ expression

Question: And the “DCF-DA staining in HSCs” value [4]?
Answer: significantly reversed

Question: What about the “differences in Notch1 expression in HSCs, T progenitor cells and thymocytes” value [5] of the same compound?
Answer: significantly reversed by in vivo treatment with NAC for 4 weeks
